Reference: the NIST ThermoML archive (doi:10.1021/je400463n)
± gives the expanded uncertainty stated by the source.

Experiment: mn = molality of the nth substance listed, in mol/kg
Conditions: 100 kPa, Liquid, Pycnometric method

CCCCCCCCCCCC[N+](C)(CCO)CCO.[Br-] [N,N-bis(2-hydroxyethyl)-N-methyldodecan-1-aminium bromide] + O
mass density [kg/m3]
Conditions | 293.15 K | 298.15 K | 303.15 K | 308.15 K | 313.15 K | 318.15 K
m1 = 0.00497 | 998.465 ± 0.23 | 997.294 ± 0.25 | 995.89 ± 0.26 | 994.266 ± 0.27 | 992.443 ± 0.28 | 990.43 ± 0.29
m1 = 0.00607 | 998.521 ± 0.23 | 997.349 ± 0.25 | 995.942 ± 0.26 | 994.317 ± 0.27 | 992.492 ± 0.28 | 990.478 ± 0.29
m1 = 0.00698 | 998.568 ± 0.23 | 997.394 ± 0.25 | 995.986 ± 0.26 | 994.359 ± 0.27 | 992.533 ± 0.28 | 990.518 ± 0.29
m1 = 0.00805 | 998.622 ± 0.23 | 997.446 ± 0.25 | 996.036 ± 0.26 | 994.408 ± 0.27 | 992.58 ± 0.28 | 990.564 ± 0.29
m1 = 0.00909 | 998.675 ± 0.23 | 997.498 ± 0.25 | 996.086 ± 0.26 | 994.456 ± 0.27 | 992.626 ± 0.28 | 990.609 ± 0.29
m1 = 0.01002 | 998.722 ± 0.23 | 997.544 ± 0.25 | 996.13 ± 0.26 | 994.499 ± 0.27 | 992.667 ± 0.28 | 990.649 ± 0.29
m1 = 0.01109 | 998.774 ± 0.23 | 997.597 ± 0.25 | 996.18 ± 0.26 | 994.548 ± 0.27 | 992.714 ± 0.28 | 990.695 ± 0.29
m1 = 0.01202 | 998.818 ± 0.23 | 997.641 ± 0.25 | 996.222 ± 0.26 | 994.59 ± 0.27 | 992.755 ± 0.28 | 990.735 ± 0.29
m1 = 0.01306 | 998.867 ± 0.23 | 997.686 ± 0.25 | 996.268 ± 0.26 | 994.637 ± 0.27 | 992.801 ± 0.28 | 990.78 ± 0.29
m1 = 0.01414 | 998.915 ± 0.23 | 997.734 ± 0.25 | 996.315 ± 0.26 | 994.681 ± 0.27 | 992.847 ± 0.28 | 990.825 ± 0.29
m1 = 0.01505 | 998.953 ± 0.23 | 997.771 ± 0.25 | 996.353 ± 0.26 | 994.719 ± 0.27 | 992.884 ± 0.28 | 990.862 ± 0.29
m1 = 0.01609 | 998.993 ± 0.23 | 997.811 ± 0.25 | 996.394 ± 0.26 | 994.756 ± 0.27 | 992.923 ± 0.28 | 990.9 ± 0.29
m1 = 0.01815 | 999.08 ± 0.23 | 997.897 ± 0.25 | 996.476 ± 0.26 | 994.837 ± 0.27 | 993.001 ± 0.28 | 990.98 ± 0.29
m1 = 0.02008 | 999.16 ± 0.23 | 997.976 ± 0.25 | 996.554 ± 0.26 | 994.913 ± 0.27 | 993.076 ± 0.28 | 991.051 ± 0.29
m1 = 0.02518 | 999.367 ± 0.23 | 998.178 ± 0.25 | 996.752 ± 0.26 | 995.11 ± 0.27 | 993.267 ± 0.28 | 991.242 ± 0.29
m1 = 0.03023 | 999.571 ± 0.23 | 998.38 ± 0.25 | 996.95 ± 0.26 | 995.305 ± 0.27 | 993.46 ± 0.28 | 991.431 ± 0.29
m1 = 0.03525 | 999.778 ± 0.23 | 998.58 ± 0.25 | 997.146 ± 0.26 | 995.497 ± 0.27 | 993.649 ± 0.28 | 991.62 ± 0.29
m1 = 0.04028 | 999.983 ± 0.23 | 998.782 ± 0.25 | 997.344 ± 0.26 | 995.692 ± 0.27 | 993.84 ± 0.28 | 991.807 ± 0.29
m1 = 0.04512 | 1000.19 ± 0.23 | 998.981 ± 0.25 | 997.539 ± 0.26 | 995.884 ± 0.27 | 994.027 ± 0.28 | 991.991 ± 0.29
m1 = 0.05025 | 1000.4 ± 0.23 | 999.187 ± 0.25 | 997.74 ± 0.26 | 996.082 ± 0.27 | 994.223 ± 0.28 | 992.184 ± 0.29

CCCCCCCCCCCC[N+](C)(C)CCO.[Br-] [dodecyl(2-hydroxyethyl)dimethylammonium bromide] + O
mass density [kg/m3]
Conditions | 293.15 K | 298.15 K | 303.15 K | 308.15 K | 313.15 K | 318.15 K
m1 = 0.00798 | 998.5 ± 0.23 | 997.328 ± 0.25 | 995.92 ± 0.26 | 994.291 ± 0.27 | 992.462 ± 0.28 | 990.446 ± 0.29
m1 = 0.009 | 998.537 ± 0.23 | 997.364 ± 0.25 | 995.954 ± 0.26 | 994.324 ± 0.27 | 992.494 ± 0.28 | 990.476 ± 0.29
m1 = 0.01003 | 998.574 ± 0.23 | 997.4 ± 0.25 | 995.989 ± 0.26 | 994.356 ± 0.27 | 992.525 ± 0.28 | 990.506 ± 0.29
m1 = 0.01099 | 998.61 ± 0.23 | 997.434 ± 0.25 | 996.02 ± 0.26 | 994.387 ± 0.27 | 992.554 ± 0.28 | 990.534 ± 0.29
m1 = 0.01195 | 998.646 ± 0.23 | 997.468 ± 0.25 | 996.053 ± 0.26 | 994.418 ± 0.27 | 992.584 ± 0.28 | 990.562 ± 0.29
m1 = 0.013 | 998.684 ± 0.23 | 997.503 ± 0.25 | 996.087 ± 0.26 | 994.451 ± 0.27 | 992.616 ± 0.28 | 990.593 ± 0.29
m1 = 0.01395 | 998.716 ± 0.23 | 997.536 ± 0.25 | 996.117 ± 0.26 | 994.481 ± 0.27 | 992.644 ± 0.28 | 990.621 ± 0.29
m1 = 0.01498 | 998.747 ± 0.23 | 997.566 ± 0.25 | 996.147 ± 0.26 | 994.511 ± 0.27 | 992.676 ± 0.28 | 990.65 ± 0.29
m1 = 0.01595 | 998.774 ± 0.23 | 997.591 ± 0.25 | 996.174 ± 0.26 | 994.537 ± 0.27 | 992.701 ± 0.28 | 990.679 ± 0.29
m1 = 0.01793 | 998.831 ± 0.23 | 997.647 ± 0.25 | 996.226 ± 0.26 | 994.588 ± 0.27 | 992.75 ± 0.28 | 990.727 ± 0.29
m1 = 0.01991 | 998.886 ± 0.23 | 997.7 ± 0.25 | 996.278 ± 0.26 | 994.637 ± 0.27 | 992.8 ± 0.28 | 990.776 ± 0.29
m1 = 0.02489 | 999.025 ± 0.23 | 997.835 ± 0.25 | 996.408 ± 0.26 | 994.766 ± 0.27 | 992.92 ± 0.28 | 990.893 ± 0.29
m1 = 0.02994 | 999.159 ± 0.23 | 997.963 ± 0.25 | 996.535 ± 0.26 | 994.888 ± 0.27 | 993.043 ± 0.28 | 991.013 ± 0.29
m1 = 0.03493 | 999.299 ± 0.23 | 998.101 ± 0.25 | 996.667 ± 0.26 | 995.018 ± 0.27 | 993.17 ± 0.28 | 991.136 ± 0.29
m1 = 0.0399 | 999.439 ± 0.23 | 998.235 ± 0.25 | 996.795 ± 0.26 | 995.142 ± 0.27 | 993.291 ± 0.28 | 991.254 ± 0.29
m1 = 0.04493 | 999.582 ± 0.23 | 998.372 ± 0.25 | 996.93 ± 0.26 | 995.274 ± 0.27 | 993.419 ± 0.28 | 991.378 ± 0.29
m1 = 0.04982 | 999.714 ± 0.23 | 998.5 ± 0.25 | 997.055 ± 0.26 | 995.395 ± 0.27 | 993.537 ± 0.28 | 991.49 ± 0.29
m1 = 0.05488 | 999.856 ± 0.23 | 998.637 ± 0.25 | 997.186 ± 0.26 | 995.52 ± 0.27 | 993.66 ± 0.28 | 991.613 ± 0.29
